Experimental data taken from the supplement of paper PMC10307832.

Legend:
Test in all cases: relative viability (nuclei count vs DMSO), 5 days (fraction); higher = more cells survive
[1] = test system: HCC-827
How it was run: (§1)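 Five library-drug doses in √10 steps were combined with a fixed anchor-drug dose, or a single drug was given alone, by pin tool to lung cancer cell lines in 1536-well plates the day after seeding. Nuclei were stained and counted after 5 days. Relative viability is the nuclei count in treated wells over that in vehicle wells, taken as the median of duplicate plates.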

[2] = test system: NCI-H2405
How it was run: as §1

[3] = test system: EPLC-272H
How it was run: as §1

[4] = test system: LCLC-103H
How it was run: as §1

[5] = test system: NCI-H1651
How it was run: as §1

[6] = test system: NCI-H650
How it was run: as §1

[7] = test system: HCC-44
How it was run: as §1

[8] = test system: NCI-H1395
How it was run: as §1

[9] = test system: NCI-H520
How it was run: as §1

[10] = test system: NCI-H1793
How it was run: as §1

[11] = test system: NCI-H2085
How it was run: as §1

With `COc1cc2nccc(Oc3ccc(NC(=O)Nc4cc(C)on4)c(Cl)c3)c2cc1OC` [Tivozanib] + CC(=O)c1c(C)c2cnc(Nc3ccc(N4CCNCC4)cn3)nc2n(C2CCCC2)c1=O [Palbociclib] (partner 0.5 µM) the relative viability ([1]; first compound 0.05 µM) was 0.539, the relative viability ([1]; first compound 0.1581 µM) was 0.448 and the relative viability ([1]; first compound 0.5 µM) was 0.412. The relative viability ([2]; first compound 0.005 µM) was 0.534, the relative viability ([2]; first compound 0.01581 µM) was 0.55 and the relative viability ([2]; first compound 0.05 µM) was 0.528. It also gave a relative viability ([2]; first compound 0.1581 µM) of 0.527, a relative viability ([2]; first compound 0.5 µM) of 0.466 and a relative viability ([3]; first compound 0.005 µM) of 0.268. The relative viability ([3]; first compound 0.01581 µM) was 0.303, the relative viability ([3]; first compound 0.05 µM) was 0.35 and the relative viability ([3]; first compound 0.1581 µM) was 0.348. It also gave a relative viability ([3]; first compound 0.5 µM) of 0.282, a relative viability ([4]; first compound 0.005 µM) of 0.452 and a relative viability ([4]; first compound 0.01581 µM) of 0.512. For the same compound, the relative viability ([4]; first compound 0.05 µM) was 0.519, the relative viability ([4]; first compound 0.1581 µM) was 0.551 and the relative viability ([4]; first compound 0.5 µM) was 0.471. For the same compound, the relative viability ([5]; first compound 0.005 µM) was 0.524, the relative viability ([5]; first compound 0.01581 µM) was 0.516 and the relative viability ([5]; first compound 0.05 µM) was 0.522. The relative viability ([5]; first compound 0.1581 µM) was 0.547, the relative viability ([5]; first compound 0.5 µM) was 0.543 and the relative viability ([6]; first compound 0.005 µM) was 0.297. The relative viability ([6]; first compound 0.01581 µM) was 0.391, the relative viability ([6]; first compound 0.05 µM) was 0.338 and the relative viability ([6]; first compound 0.1581 µM) was 0.377. For the same compound, the relative viability ([6]; first compound 0.5 µM) was 0.27, the relative viability ([7]; first compound 0.005 µM) was 0.958 and the relative viability ([7]; first compound 0.01581 µM) was 0.914. It also gave a relative viability ([7]; first compound 0.05 µM) of 0.989, a relative viability ([7]; first compound 0.1581 µM) of 0.987 and a relative viability ([7]; first compound 0.5 µM) of 0.922. For the same compound, the relative viability ([8]; first compound 0.005 µM) was 0.581, the relative viability ([8]; first compound 0.01581 µM) was 0.587 and the relative viability ([8]; first compound 0.05 µM) was 0.659. The relative viability ([8]; first compound 0.1581 µM) was 0.55, the relative viability ([8]; first compound 0.5 µM) was 0.509 and the relative viability ([9]; first compound 0.005 µM) was 0.231. It also gave a relative viability ([9]; first compound 0.01581 µM) of 0.296, a relative viability ([9]; first compound 0.05 µM) of 0.238 and a relative viability ([9]; first compound 0.1581 µM) of 0.19. The relative viability ([9]; first compound 0.5 µM) was 0.231, the relative viability ([10]; first compound 0.005 µM) was 0.309 and the relative viability ([10]; first compound 0.01581 µM) was 0.343. It also gave a relative viability ([10]; first compound 0.05 µM) of 0.354, a relative viability ([10]; first compound 0.5 µM) of 0.422 and a relative viability ([11]; first compound 0.005 µM) of 0.458. It also gave a relative viability ([11]; first compound 0.01581 µM) of 0.478, a relative viability ([11]; first compound 0.05 µM) of 0.512 and a relative viability ([11]; first compound 0.1581 µM) of 0.512. It also gave a relative viability ([11]; first compound 0.5 µM) of 0.503.
